{"source": "patent US20080200531A1", "about": "“CDKI pathway inhibitors as inhibitors of tumor cell growth” (priority 2006, published 2008)", "test_system": "CDKI-responsive endogenous genes induced by p16", "experiment": "Q-PCR of CDKI-responsive endogenous genes, HT1080 cells with IPTG-inducible p16", "format": "cell-based, human", "settings": "10 μM SNX9; normalized to β-actin", "method": "For this purpose, we developed real-time RT-PCR (Q-PCR) assays for measuring RNA levels of eleven CDKI-responsive genes. This assay uses a 96-well TurboCapture RNA extraction kit (Qiagen), in which oligo(dT) is covalently bound to the surface of the wells to allow mRNA isolation from cell lysate and cDNA synthesis in the same wells. 5 units/μl of SuperScript III reverse transcriptase (Invitrogen) was added to the wells for 1 hr for cDNA synthesis at 50° C., and 2 μl of the resulting cDNA was then used for Q-PCR analysis using SYBR Green PCR Master Mix (ABI) with ABI 7900HT Q-PCR machine.\nThis effect argues that the molecular target of these compounds is not a specific CDKI but rather a common downstream mediator of the transcription-inducing effects of different CDKI."}
{"smiles": "Cc1[nH]c2c(Cl)cccc2c1CCN", "note": "[SNX9]", "values": [{"measurement": "induction of CDKI-responsive endogenous genes by p16 (ratio of RNA levels with and without IPTG)", "result": "partially inhibit the induction of all the tested genes"}]}
